pEC50: −log10 of the molar value. Starred links: 1 amine or outer side, 2 acyl side, 3 side chain; linkers in the order of their positions; H or OH if unused. Positions of bridges follow the written chain, without caps; N, C: chain ends. Non-standard residues stand in square brackets, D forms with d. Residues, ends and D or L forms follow the SMILES beside them. Chains are numbered I, II in the order given. Actinocin(9to1) = Cc1c2oc3c(C)ccc(C(=O)[*:1])c3nc-2c(C(=O)[*:2])c(N)c1=O; NMeV = CN[C@H](C(=O)O)C(C)C; Sar = CNCC(=O)O
How the values were obtained:
MBNL-CUG RNA complex = biological target: T1, MBNL-CUG RNA complex (Homo sapiens, UniProt Q9NR56); experiment: Gel shift assay, disruption of MBNL binding to short CUG repeat RNA; details: for Disruption of the MBNL-CUG interaction: gel shift screen, increasing amounts of small molecule
T1 construct: Both the full length MBNL and MBNL (1-260) constructs were cloned using BamHI and NotI restriction sites; GST (N, cleaved yes); made in house; host or cells: E. coli BL21-Star
T1 sequence (Q9NR56 1-382 isoform Q9NR56-5): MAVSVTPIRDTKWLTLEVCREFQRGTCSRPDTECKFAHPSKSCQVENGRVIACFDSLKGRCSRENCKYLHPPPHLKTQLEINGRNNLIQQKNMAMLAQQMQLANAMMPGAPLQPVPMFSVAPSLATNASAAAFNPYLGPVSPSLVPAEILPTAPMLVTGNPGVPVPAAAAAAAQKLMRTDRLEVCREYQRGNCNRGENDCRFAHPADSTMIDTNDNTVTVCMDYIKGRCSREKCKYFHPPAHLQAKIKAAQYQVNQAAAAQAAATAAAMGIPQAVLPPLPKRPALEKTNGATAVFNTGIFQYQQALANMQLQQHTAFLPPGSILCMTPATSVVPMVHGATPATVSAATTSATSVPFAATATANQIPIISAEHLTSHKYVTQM
Description: MBNL1 (MBNL) was PCR amplified and was cloned into GST fusion vector pGEX-6P-1 (GE Healthcare, Piscataway, N.J.), using DNA encoding a MBNL isoform with amino acids 1-382). Both the full length MBNL and MBNL (1-260) constructs were cloned using BamHI and NotI restriction sites. Using BL21-Star expression cells (Invitrogen, Carlsbad, Calif.), protein expression was induced with 0.25 mM IPTG at an OD600 of about 0.5-1, for 3-4 hours at 37° C. Cells were lysed in 30 ml of buffer (500 mM NaCl, 25 mM Tris pH 7.5, 10 mM β-mercaptoethanol (BME) and 5% glycerol) using 1 mg/ml of lysozyme, followed by sonication (3×30 seconds). Cell extract was centrifuged for 15 minutes at 17,000 rpm, and lysate which contained GST-MBNL was collected. GST-MBNL was bound to GST affinity beads for 30 minutes at 4° C. […] The protein was then run over an anion exchange (Q) column. […] MBNL was collected in the column flow through, concentrated and dialyzed into storage buffer (30% glycerol, 300 mM NaCl, 20 mM Tris pH 7.5, 5 mM BME) and stored at −80° C. Aliquots were removed from −80° C. and temporarily placed at −20° C. until used for an experiment.
All RNA substrates that were radiolabeled were ordered from IDT DNA (Coralville, Iowa), and 5′ end-labeled using [γ-^32P]ATP. All radiolabeled RNAs were purified on 8% polyacrylamide denaturing gels.
Solutions for the protein-RNA binding experiments contained 125 mM NaCl, 5 mM MgCl2, 20 mM Tris (pH 7.5), 7.5% glycerol, 2 mg/ml bovine serum albumin, and 0.1 mg/ml heparin. Prior to incubation, RNA substrates were annealed by incubation at 95° C. for 2 minutes and then placed directly on ice for 20 minutes in 66 mM NaCl, 6.7 mM MgCl2, and 27 mM Tris (pH 7.5). Protein was then added to the RNA in the presence or absence of the small molecule. The binding reaction was carried out in a 10 μL volume and was incubated for 10 minutes at room temperature before 2-4 μL were loaded on a pre-chilled 4° C. gel. RNA and RNA-protein complexes were separated on 3% acrylamide (37.5:1), 0.3% agarose (low melting point), 0.5× Tris-Borate (TB) gels, run for approximately 2-3 hours at 4° C. at 25-50 volts. Gels were dried and autoradiographed. For the neomycin B and CUG8 gel shift, an 8% acrylamide (29:1), 0.5×TB gel was used and run for 3 hours at 4° C. at 175 volts. All small molecules were dissolved in either water or ethanol, according to the manufacturer's guidance for solubility.
(§1) For binding curves, gels were quantified using ImageQuant® software (Molecular Dynamics, Piscataway, N.J.). The percent RNA bound was determined by taking the ratio of RNA-protein complex to total RNA, per lane. Any counts in the well were discarded as it was unapparent if the RNA was bound by protein, small molecule or was in an aggregate. Binding curves were graphed using KaleidaGraph software (Synergy Software, Reading, Pa.). For the neomycin B and CUG8 gel shift, the apparent Kd was determined using Equation 1, where Y=fraction bound, m0=small molecule concentration, m1=total RNA concentration, and m2=Kd.
For determining the EC50, Equation 3 was used, where m0=small molecule concentration, m1=EC50, m2=Hill coefficient, and m3=fraction MBNL bound without small molecule present. Y=m3/[1+(m0/m1)^m2] Equation 3 Results

MBNL-cTNT interaction = biological target: T2, MBNL-cTNT interaction (Homo sapiens, UniProt Q9NR56); experiment: Gel shift assay, disruption of MBNL binding to cTNT pre-mRNA site; details: read-out: EC50 for disruption of MBNL binding to cTNT target construct
T2 construct: Both the full length MBNL and MBNL (1-260) constructs were cloned using BamHI and NotI restriction sites; GST (N, cleaved yes); made in house; host or cells: E. coli BL21-Star
T2 sequence (Q9NR56 1-382 isoform Q9NR56-5): T1 sequence (Q9NR56 1-382 isoform Q9NR56-5)
Description: Solutions for the protein-RNA binding experiments contained 125 mM NaCl, 5 mM MgCl2, 20 mM Tris (pH 7.5), 7.5% glycerol, 2 mg/ml bovine serum albumin, and 0.1 mg/ml heparin. Prior to incubation, RNA substrates were annealed by incubation at 95° C. for 2 minutes and then placed directly on ice for 20 minutes in 66 mM NaCl, 6.7 mM MgCl2, and 27 mM Tris (pH 7.5). Protein was then added to the RNA in the presence or absence of the small molecule. The binding reaction was carried out in a 10 μL volume and was incubated for 10 minutes at room temperature before 2-4 μL were loaded on a pre-chilled 4° C. gel. […]
as §1, with “Any counts in the well were discarded as it was unapparent if the RNA was bound by protein, small molecule or was in an aggregate.” left out, “m2=Kd. […]” for “m2=Kd.”
Pentamidine has been shown previously to bind to other RNAs and DNAs (Zhang et al., RNA 6:937-951, 2000); therefore, we determined pentamidine binding to an endogenous target of MBNL. […]

[1] = system: cTNT splicing reporter in HeLa cells; experiment: cTNT splicing reporter (exon 5 inclusion) in HeLa cells with or without CUG960 plasmid; assay type: cell-based; details: presence of the CUG960 construct
Description: HeLa cells were grown in monolayers in DMEM with GlutaMAX™ (Gibco, Carlsbad, Calif.) and supplemented with 10% fetal bovine serum. Approximately 2.0 (±0.2)×10^5 cells were plated in 6 well plates and transfected 18-20 hours later at 70-90% confluency. 1 μg of plasmid was transfected into each well of cells, using 5 μL of […] (Invitrogen) according to the manufacturer's protocols. For co-transfection, 1 μg of total plasmid was transfected, at 500 ng of each construct. Test compounds were added 4 hours after transfection, when the media was changed. Cells were harvested 18-22 hours after transfection using TrypLE™ reagent (Gibco).
Immediately following harvesting, RNA was isolated from the cell pellets using an RNeasy® kit (Qiagen, Valencia, Calif.). 500 ng of isolated RNA was DNased with RQI DNase (Promega, Madison, Wis.) according to manufacture's protocol. 100 ng of DNAsed RNA was reverse transcribed with Superscript® II (Invitrogen, Carlsbad, Calif.) and a cTNT-specific reverse primer according to manufacturer's protocols. 30 ng of the reverse transcription reaction was subjected to 22-25 rounds of PCR amplification using cTNT specific primers spiked with a forward primer 5′ end-labeled with [γ-^32P]ATP. Similar methods were used to reverse transcribe and amplify IR and PLEKHH2. […] The resulting PCR products were run on a 6% (19:1) polyacrylamide denaturing gel. The gel was subsequently autoradiographed and quantitation of the radioactive bands was performed using ImageQuant® software.
The following primer pairs were used. For the cTNT minigene, the forward primer was […] (SEQ ID NO: 1), and the reverse primer was […] (SEQ ID NO: 2). For the IR minigene, the forward primer was […] (SEQ ID NO: 3), and the reverse primer was […] (SEQ ID NO: 4). The underlined sections are for cloning purposes. For the PLEKHH2 minigene, the forward primer was […] (SEQ ID NO: 5), and the reverse primer was […] (SEQ ID NO: 6).
The ability of pentamidine to alter the splicing defects observed in a cell-based model for DM was tested. This was accomplished in a system using cells transformed with a plasmid expressing 960 CUG repeats where the expression of these CUG repeats causes splicing defects similar to those observed in DM cells and DM subjects (Savkur et al., Nature Genet. 29:40-47, 2001).

Compound | Disruption of the MBNL-CUG interaction (MBNL-CUG RNA complex) | pEC50 (MBNL-CUG RNA complex; gel shift, short CUG repeat RNA (CUG4), read-out: EC50 for disruption of MBNL binding to CUG repeat construct) | pEC50 (MBNL-cTNT interaction) | Concentration giving complete rescue of cTNT missplicing [1]
NC[C@@H]1O[C@H](O[C@H]2[C@@H](O)[C@H](O[C@@H]3[C@@H](O)[C@H](N)C[C@H](N)[C@H]3O[C@H]3O[C@H](CO)[C@@H](O)[C@H](O)[C@H]3N)O[C@@H]2CO)[C@H](N)[C@@H](O)[C@@H]1O [paromomycin] | did not disrupt the MBNL-CUG interaction at any concentration |  |  | 
NC[C@@H]1O[C@H](O[C@H]2[C@@H](O)[C@H](O[C@@H]3[C@@H](O)[C@H](N)C[C@H](N)[C@H]3O[C@H]3O[C@H](CN)[C@@H](O)[C@H](O)[C@H]3N)O[C@@H]2CO)[C@H](N)[C@@H](O)[C@@H]1O [neomycin B] | disrupt the MBNL-CUG interaction at micromolar concentrations | 3.96 | 4.30 | 
N=C(N)c1ccc(OCCCCCCCOc2ccc(C(=N)N)cc2)cc1 [heptamidine] |  |  |  | 25 µM
CN1C(=Cc2cc[n+](C)c3ccccc23)Sc2ccccc21 [thiazole orange] | disrupt the MBNL-CUG interaction at micromolar concentrations |  |  | 
Cc1c2oc3c(C)ccc(C(=O)N[C@@H]4C(=O)N[C@H](C(C)C)C(=O)N5CCC[C@H]5C(=O)N(C)CC(=O)N(C)[C@@H](C(C)C)C(=O)O[C@@H]4C)c3nc-2c(C(=O)N[C@@H]2C(=O)N[C@H](C(C)C)C(=O)N3CCC[C@H]3C(=O)N(C)CC(=O)N(C)[C@@H](C(C)C)C(=O)O[C@@H]2C)c(N)c1=O [actinomycin D] (I: T[dV]P[Sar][NMeV] / II: T[dV]P[Sar][NMeV]; ester I:1-I:C, II:1-II:C; linker I:N-II:N via Actinocin(9to1)) | did not disrupt the MBNL-CUG interaction at any concentration |  |  | 

From patent US8436049B2, “Uses of pentamidine and related compounds” (State of Oregon Acting By and Through the State Board of …, priority 2008, dated 2013)
